Series [1] relates to NMC-A β-lactamase reporter (C69X C238X). The series can be described thus: NMC-A β-lactamase reporter assay in strain lacking release factor 1. It is filed as cell-based, E. coli RTΔA. The following applies: RF1-deficient background, two amber codons. (In general: In a reporter assay the amount or activity of a reporter protein is the signal.)
Series [2] has as its system Pseudomonas aeruginosa azurin position 112. In words: Selenocysteine incorporation into azurin C112X by intact mass spectrometry. On the set-up: species or system E. coli RTΔA.2. Particulars: peak areas of the mass spectrum. The protocol:
RTΔA.2 transformants containing pAz-C112X-AU and pRSF-eSelAK were cultured as described previously with the exception that 20 μM Na2SeO3 was added for the 24 hour incubation. Cells were harvested by centrifugation and the periplasmic fraction isolated. Briefly, cell pellets were resuspended in 50 mL of 100 mM Tris and 0.75 M sucrose at pH 7.5. Following addition of lysozyme to 1 mg·mL^−1 and protease inhibitor cocktail cells were gently agitated for 20 min at 4° C. 50 mL of 1 mM EDTA was added and samples incubated again for 20 minutes. EDTA was neutralized by addition of 3.5 mL 0.5M MgCl2 during a further 20 min incubation. Spheroblasts were removed by centrifugation at 35000×g for 30 min, the periplasmic fraction passed through a 0.2 µm filter and mixed with imidazole stock solution to a final concentration of 20 mM. Seleno-azurin was recovered by IMAC using Ni-NTA resin and gravity flow columns. Eluate was concentrated and dialyzed against 50 mM NH4Ac pH 6.5 prior to the isolation of seleno-azurin by size exclusion FPLC. […]
Intact protein samples were analyzed using methods described previously (Ellefson et al., 2014). […] UVPD mass spectra were also deconvoluted using Xtract and then analyzed using ProsightPC 3.0. […] Incorporation efficiencies were calculated by dividing the area of the modified protein peak by the summed areas of the unmodified protein peak and the modified protein peak. […]

The subject of series [3] is E. coli dihydrofolate reductase (DHFR) position 39. The series can be described thus: Selenocysteine incorporation into DHFR P39X by intact mass spectrometry. Further details: species or system E. coli RTΔA.2. The following applies: for serine incorporation in DHFR: mass spectrometry; for selenocysteine incorporation efficiency in DHFR: peak areas of the mass spectrum. From the text:
To further enhance the efficiency of selenocysteine incorporation, a number of steps were taken to improve the levels of Sec-tRNA^Sec relative to Ser-tRNA^Sec, including increasing the level of SelA, decreasing the gene dose of tRNA^SecUx, and co-expressing a phosphoseryl-tRNA^Sec kinase (see Example 2 below). […] In order to further validate selenocysteine incorporation, the Pseudomonas aeruginosa metalloprotein azurin was also expressed with its essential cysteine (C112) replaced by selenocysteine and the human selenoprotein cellular glutathione peroxidase (GPx-1) (FIGS. 6a-6e and 8a-8b). For azurin, this chemical change had previously proven possible only through expressed protein ligation,^22 the essential cysteine could now be biologically replaced with selenocysteine with good efficiency as measured by mass spectrometry of the intact protein.
RTΔA.2 transformants containing pDHFR-P39X-AU and pRSF-eSelAK were cultured ON in LB medium containing 100 μg·mL^−1 ampicillin, 50 μg·mL^−1 kanamycin and 1 μM Na2SeO3. Overnight cultures were diluted 1/500 in a final volume of 2 L LB medium containing 50 μg·mL^−1 ampicillin, 25 μg·mL^−1 kanamycin and 5 μM Na2SeO3 and incubated with agitation for 24 hours at 37° C. Cells were harvested by centrifugation at 8000×g for 10 min and resuspended in 20 mL of wash buffer (100 mM Tris, 150 mM NaCl, 1 mM EDTA at pH 8.0) with protease inhibitor cocktail (cOmplete, mini EDTA free, Roche) and lysozyme at 1 mg·mL^−1. Following a 20 min incubation at 4° C. cells were lysed by sonication (Model 500, Fisher Scientific) and clarified by three times by centrifugation at 35000×g for 30 min. Lysate was passed through a 0.2 µm filter and seleno-DHFR recovered using Strep-Tactin affinity chromatography following the manufacturer's instructions (GE Healthcare). Eluate was concentrated to 3 mL and dialyzed against 50 mM NH4Ac pH 6.5 prior to the isolation of seleno-DHFR by size exclusion FPLC (ÄKTA, GE Healthcare). Seleno-DHFR was produced using tRNA^SecUx with a yield of 68 μg·L^−1 and 100% incorporation efficiency. Seleno-DHFR was produced using tRNA^UTu with a yield of 131 μg·L^−1 and 38.1% incorporation efficiency. DHFR containing serine at position 39 was produced with a yield of 225 μg·L^−1.
Intact protein samples were analyzed using methods described previously (Ellefson et al., 2014). Azurin, DHFR and GPx-1 samples were buffer exchanged into LC-MS grade water using 10 kDa molecular weight cutoff filters. […] UVPD mass spectra were also deconvoluted using Xtract and then analyzed using ProsightPC 3.0. […] Incorporation efficiencies were calculated by dividing the area of the modified protein peak by the summed areas of the unmodified protein peak and the modified protein peak. […]

Several values for one entry are separate records, joined by “and”; a condition that tells them apart may be missing. Equal entries are not always repeated.

For the substance “tRNA^SecUx: Evolved E. coli tRNA^Sec variant with the G7-C66:U49-G65:C50-U64 antideterminant sequence and CUA anticodon”, the “formation of functional diselenide bond (U69 and U238) in NMC-A” value in series [1] is “could now support the formation of a functional diselenide bond”. Moreover, the “selenocysteine incorporation efficiency in azurin” value in series [2] was “greater than 76%”. In addition, in series [3], the “serine incorporation in DHFR” value was “no detectable background” and the “selenocysteine incorporation efficiency in DHFR” value is given as ~100%.

Take “tRNA^UTu (GGAAGATGTGGCCGAGCGGTTGAAGGCACCGGT; expressed or natural sequence)”: in series [3], the “serine incorporation in DHFR” value is listed as 62%; the “selenocysteine incorporation efficiency in DHFR” value was 38% and 38.1%.

The values are drawn from patent publication US12344879B2, “Transgenic bacteria with expanded amino acid usage and nucleic acid molecules for use in the same” (BOARD OF REGENTS, THE UNIVERSITY OF TEXAS SYSTEM, priority 2015, dated 2025).
